Laboratory results reported in patent publication US20030110518A1, “Melanocortin-5 receptor sequences and uses thereof” (priority 2001, published 2003).

Assays:
canine MC5R [1] = biological target: T1, canine MC5R (Canis lupus familiaris, UniProt A0A8I3MI44)
Procedure: The following example discloses the measurement of canine MC5R-mediated cAMP accumulation in response to α-MSH stimulation.
As described above, MC5R, when activated by its agonist ligand, stimulates adenylyl cyclase to form cAMP. A commercially available kit (Adenylyl Cyclase Activation Flashplate Assay, NEN® Life Science Products, Inc., Boston, Mass., Cat # SMP004, SMP004A) is used to measure cAMP accumulation. An MC5R/HEK293 cell line is prepared. Cells are harvested using Sigma dissociation buffer, washed, centrifuged and resuspended in stimulation buffer, which is provided in the kit (Sigma Chemical Co., St. Louis, Mo.). The suspended cells are counted using a hemacytometer. Cells are pelleted again by centrifugation and resuspended with stimulation buffer to the desired concentration (0.5-5×10^6 cells per ml). A cell volume titration is performed by transferring varying volumes in triplicate into wells. For each cell concentration tested, a full agonist dose titration is performed, including a negative control. The agonists employed include [Nle^4,D-Phe^7]-α-MSH(NDP-MSH) and α-MSH. […]
The duration of stimulation by agonist is also varied (15-45 minutes). […] Stimulation of MC5R is determined by scillintation counting in a Wallac MICROBETA® scintillation counter (EG&G Wallac, Gaithersburg, Md.).

[2] = biological target: canine melanocortin 5 receptor (canine); assay: cell-based or functional assay
canine MC5R [3] = biological target: T1, canine MC5R; assay: Whole cell binding assay with radiolabeled NDP-MSH in transfected HEK293a cells; set-up: expressed in transfected cells; host or cells: HEK293 / HEK293a; settings: 75 pM label, 37° C., 1 hour; clones nos. 9 and 13; FIG. 5
Procedure: Transient transfection & Whole Cell Binding Assay. A 50% confluent cell culture plate containing HEK293 cells is used for transient transfection with various vector constructs using Fugene 6 as a transfection carrier (4 μl Fugene 6 per μg plasmid DNA). Cells are harvested 48 hours post transfection using Sigma dissociation buffer (Sigma Chemical Co., St. Louis, Mo.), then centrifuged and resuspended in binding buffer (50 mM HEPES, 5 mM MgCl, 0.1% BSA, pH 7.5, containing a Sigma P-8340 protease inhibitor cocktail). The resuspended cell population is counted using a hemacytometer. A cell volume titration is performed by pipetting varying volumes in triplicate into tubes. Either buffer or excess cold NDP-MSH (2 μM final conc.) is added. Excess cold NDP-MSH is used to ascertain non-specific binding. Radiolabeled (^125I) NDP-MSH is added such that the final concentration is 75 pM. The reaction is incubated at 37° C. for 1 hour, and then the reaction mixture is centrifuged at 5000×g for 10 minutes. The supernatant solution is removed by aspiration and radioisotope remaining with the cell pellet is counted in a gamma counter. FIG. 5 discloses the specific NDP-MSH binding to five canine MC5R/HEK293a cells (shown as “C5#_” in FIG. 5).

T1 sequence (A0A8I3MI44 1-325): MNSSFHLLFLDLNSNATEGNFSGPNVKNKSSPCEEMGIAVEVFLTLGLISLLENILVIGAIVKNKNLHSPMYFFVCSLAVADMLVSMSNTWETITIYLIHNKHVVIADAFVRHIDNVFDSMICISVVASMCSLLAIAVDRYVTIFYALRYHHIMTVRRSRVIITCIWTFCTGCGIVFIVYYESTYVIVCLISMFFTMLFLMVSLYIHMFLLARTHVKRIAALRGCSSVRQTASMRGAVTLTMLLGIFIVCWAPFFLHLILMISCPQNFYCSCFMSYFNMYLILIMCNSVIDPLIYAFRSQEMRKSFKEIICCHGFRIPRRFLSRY
Sequence of canine melanocortin 5 receptor (canine) (chain, as listed by the source limits assumed): as the sequence (A0A8I3MI44 1-325) above, with H100Y, G314A counted along it

What does the source list for “α-melanocyte stimulating hormone [α-MSH]”?
sensitivity of MC5R clones to α-MSH compared with a MC4R clone (canine MC5R [1]; both MC5R clones versus a MC4R clone): more sensitive; stimulation of cAMP accumulation with α-MSH (canine MC5R [1]; three clones, FIG. 6): ≤ 8 fold

Which EC50 of cAMP accumulation (Adenylyl Cyclase Activation Flashplate Assay), clone C9 [2] does the source give for “α-melanocyte stimulating hormone (from UniProt P01189 138-150) (peptide)” here?
The EC50 of cAMP accumulation (Adenylyl Cyclase Activation Flashplate Assay), clone C9 was 5 nM.

What about the fold stimulation of cAMP accumulation [2] of the same substance?
Its fold stimulation of cAMP accumulation is less than 8 fold.

With [Nle4,D-Phe7]-α-MSH [NDP-MSH] as the substance, how does the “specific binding of radiolabeled (125I) NDP-MSH to canine MC5R/HEK293a cells” value (canine MC5R [3]) read?
The value was “high level of specific binding”.
